From article PMC12382614, “(Oxidopyridyl)Porphyrins of Different Lipophilicity: Photophysical Properties, ROS Production and Phototoxicity on Melanoma Cells Under CoCl2-Induced Hypoxia” (Antioxidants, 2025)
Like-named read-outs stand apart in the source and are kept apart here.

Experiments:
[1] = Fluorescence spectra and fluorescence quantum yield in MeOH; format: physicochemical
Protocol: The absorption spectra of (oxidopyridyl)porphyrins were recorded in HPLC grade MeOH on a Cary UV 60 (Agilent Technologies, Santa Clara, CA, USA), in a wavelength range of 300–700 nm. The fluorescence spectra in HPLC grade MeOH were recorded on a Cary Eclipse (Agilent Technologies) in a wavelength range of 500–800 nm after excitation at the Soret band wavelength (λ ~ 420 nm). The slits of the spectrometer were set to a bandpass of 5 nm for the excitation and 5 nm for the emission. To calculate the fluorescence quantum yields, the measurements were conducted on an FS5 Edinburgh Instruments spectrometer. Prior to taking the measurements, the solutions were purged with high-purity N2 for at least 15 min. The absorbance of the solutions was set to A < 0.1 at 405 nm and 550 nm, which settings were used for the excitation process. Emission was recorded from 550 to 800 nm, with slits set to the bandpass corresponding to 2 nm for the excitation, and 3 nm for the emission. Fluorescence quantum yield (ΦFL) was calculated in comparison to the tetraphenylporphyrin (TPP; ΦFL = 0.11 [23]) as a standard, according to Equation (S1) and following an equation previously described elsewhere.

A375 = assay: Photocytotoxicity, MTT assay; format: cell-based, human; conditions: red light 643 nm 30 min; for IC50: Homo sapiens, A-375, light or radiation study, 6 h incubation
MeWo = assay: Photocytotoxicity, MTT assay; format: cell-based, human; conditions: red light 643 nm 30 min; for IC50: Homo sapiens, MeWo, light or radiation study, 6 h incubation

Stokes shift [1]: 2 nm
ΦFL (fluorescence quantum yield) ([1]; N2-purged, TPP as reference): 0.047 ± 0.002
λFL Q(0,0) ([1]; excitation at Soret band): 648 nm
λFL Q(0,1) ([1]; excitation at Soret band): 713 nm
SMILES: CCCCCCCCCCCCCCCCCC(=O)Nc1ccc(-c2c3nc(c(-c4ccc[n+]([O-])c4)c4ccc([nH]4)c(-c4ccc[n+]([O-])c4)c4nc(c(-c5ccc[n+]([O-])c5)c5ccc2[nH]5)C=C4)C=C3)cc1 [TOPyP3-C17H35, 5-(4-Octadecanamidophenyl)-10,15,20-tris(1-oxido-3-pyridyl)porphyrin]
IC50 (A375; 3.6 J/cm^2, 100 μM CoCl2 at least 2 h before porphyrin, read-out: IC50 A375 CoCl2): 940 ± 150 nM
IC50 (A375; 3.6 J/cm^2, normoxia, read-out: IC50 A375 No CoCl2): 770 ± 80 nM
SI (IC50 (HDF) / IC50 (melanoma cells)) A375 100 µM CoCl2 (A375; CoCl2-induced hypoxia): 1.2
SI (IC50 (HDF) / IC50 (melanoma cells)) A375 No CoCl2 (A375; normoxia): 1.7
IC50 (MeWo; 3.6 J/cm^2, 100 μM CoCl2 at least 2 h before porphyrin, read-out: IC50 MeWo CoCl2): 680 ± 190 nM
IC50 (MeWo; 3.6 J/cm^2, normoxia, read-out: IC50 MeWo No CoCl2): 660 ± 140 nM
SI (IC50 (HDF) / IC50 (melanoma cells)) MeWo 100 µM CoCl2 (MeWo; CoCl2-induced hypoxia): 1.6
SI (IC50 (HDF) / IC50 (melanoma cells)) MeWo No CoCl2 (MeWo; normoxia): 2.0
